Reference: PubChem BioAssay (NCI)
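Following 48 hours of exposure in 96-well plates, responses at five concentrations were used to interpolate endpoints linearly. GI50 = concentration required for 50% inhibition of growth. TGI: total growth inhibition.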

Tests used:
Assay in all cases: inhibition of tumour cell growth, NCI panel, 48 h
786-0 renal = system: 786-0 renal
A498 renal = system: A498 renal
A549 NSCLC = system: A549 NSCLC
ACHN renal = system: ACHN renal
BT-549 breast = system: BT-549 breast
CAKI-1 renal = system: CAKI-1 renal
CCRF-CEM leukemia = system: CCRF-CEM leukemia
COLO 205 colon = system: COLO 205 colon
EKVX NSCLC = system: EKVX NSCLC
HCC-2998 colon = system: HCC-2998 colon
HCT-116 colon = system: HCT-116 colon
HCT-15 colon = system: HCT-15 colon
HOP-62 NSCLC = system: HOP-62 NSCLC
HS 578T breast = system: HS 578T breast
HT29 colon = system: HT29 colon
K-562 leukemia = system: K-562 leukemia
KM12 colon = system: KM12 colon
M14 melanoma = system: M14 melanoma
MALME-3M melanoma = system: MALME-3M melanoma
MCF7 breast = system: MCF7 breast
MDA-MB-231 breast = system: MDA-MB-231 breast
MDA-MB-435 = system: MDA-MB-435
MDA-N = system: MDA-N
MOLT-4 leukemia = system: MOLT-4 leukemia
NCI-H226 lung = system: NCI-H226 lung
NCI-H23 lung = system: NCI-H23 lung
NCI-H460 lung = system: NCI-H460 lung
NCI/ADR-RES ovarian = system: NCI/ADR-RES ovarian
OVCAR-3 ovarian = system: OVCAR-3 ovarian
OVCAR-4 ovarian = system: OVCAR-4 ovarian
OVCAR-5 ovarian = system: OVCAR-5 ovarian
OVCAR-8 ovarian = system: OVCAR-8 ovarian
PC-3 prostate = system: PC-3 prostate
RPMI-8226 leukemia = system: RPMI-8226 leukemia
SF-268 CNS = system: SF-268 CNS
SF-295 CNS = system: SF-295 CNS
SF-539 CNS = system: SF-539 CNS
SK-MEL-2 melanoma = system: SK-MEL-2 melanoma
SK-MEL-28 melanoma = system: SK-MEL-28 melanoma
SK-OV-3 ovarian = system: SK-OV-3 ovarian
SN12C renal = system: SN12C renal
SNB-19 CNS = system: SNB-19 CNS
SNB-75 CNS = system: SNB-75 CNS
SW-620 colon = system: SW-620 colon
T-47D breast = system: T-47D breast
U251 CNS = system: U251 CNS
UACC-257 melanoma = system: UACC-257 melanoma
UACC-62 melanoma = system: UACC-62 melanoma
UO-31 renal = system: UO-31 renal
DU-145 prostate = system: DU-145 prostate
HL-60(TB) leukemia = system: HL-60(TB) leukemia
IGROV1 ovarian = system: IGROV1 ovarian
LOX IMVI melanoma = system: LOX IMVI melanoma
NCI-H522 lung = system: NCI-H522 lung
RXF 393 renal = system: RXF 393 renal
SK-MEL-5 melanoma = system: SK-MEL-5 melanoma
SR leukemia = system: SR leukemia
TK-10 renal = system: TK-10 renal

SMILES: c1ccc2c(c1)ccc1nc(-c3ccc4c(c3)OCO4)c3c(c12)CCC3
- TGI (786-0 renal): > 100 µM
- TGI (A498 renal): > 100 µM
- TGI (A549 NSCLC): > 100 µM
- TGI (ACHN renal): > 100 µM
- TGI (BT-549 breast): > 100 µM
- TGI (CAKI-1 renal): > 100 µM
- TGI (CCRF-CEM leukemia): > 100 µM
- TGI (COLO 205 colon): > 100 µM
- TGI (EKVX NSCLC): > 100 µM
- TGI (HCC-2998 colon): > 100 µM
- TGI (HCT-116 colon): > 100 µM
- TGI (HCT-15 colon): > 100 µM
- TGI (HOP-62 NSCLC): > 100 µM
- TGI (HS 578T breast): > 100 µM
- TGI (HT29 colon): > 100 µM
- TGI (K-562 leukemia): > 100 µM
- TGI (KM12 colon): > 100 µM
- TGI (M14 melanoma): > 100 µM
- TGI (MALME-3M melanoma): > 100 µM
- TGI (MCF7 breast): > 100 µM
- TGI (MDA-MB-231 breast): > 100 µM
- TGI (MDA-MB-435): > 100 µM
- TGI (MDA-N): > 100 µM
- TGI (MOLT-4 leukemia): > 100 µM
- TGI (NCI-H226 lung): > 100 µM
- TGI (NCI-H23 lung): > 100 µM
- TGI (NCI-H460 lung): > 100 µM
- TGI (NCI/ADR-RES ovarian): > 100 µM
- TGI (OVCAR-3 ovarian): > 100 µM
- TGI (OVCAR-4 ovarian): > 100 µM
- TGI (OVCAR-5 ovarian): > 100 µM
- TGI (OVCAR-8 ovarian): > 100 µM
- TGI (PC-3 prostate): > 100 µM
- TGI (RPMI-8226 leukemia): > 100 µM
- TGI (SF-268 CNS): > 100 µM
- TGI (SF-295 CNS): > 100 µM
- TGI (SF-539 CNS): > 100 µM
- TGI (SK-MEL-2 melanoma): > 100 µM
- TGI (SK-MEL-28 melanoma): > 100 µM
- TGI (SK-OV-3 ovarian): > 100 µM
- TGI (SN12C renal): > 100 µM
- TGI (SNB-19 CNS): > 100 µM
- TGI (SNB-75 CNS): > 100 µM
- TGI (SW-620 colon): > 100 µM
- TGI (T-47D breast): > 100 µM
- TGI (U251 CNS): > 100 µM
- TGI (UACC-257 melanoma): > 100 µM
- TGI (UACC-62 melanoma): > 100 µM
- TGI (UO-31 renal): > 100 µM

SMILES: COc1cc(Nc2nc3cc(N)cc(N)c3nc2-c2ccccc2)cc(OC)c1
- GI50 (786-0 renal): 17.7 µM
- TGI (786-0 renal): 50.8 µM
- GI50 (A498 renal): 4.91 µM
- TGI (A498 renal): 22.4 µM
- GI50 (A549 NSCLC): 20.1 µM
- TGI (A549 NSCLC): > 100 µM
- GI50 (ACHN renal): 5.65 µM
- TGI (ACHN renal): 83.2 µM
- GI50 (BT-549 breast): 4.69 µM
- TGI (BT-549 breast): 31.8 µM
- GI50 (CAKI-1 renal): 14.9 µM
- TGI (CAKI-1 renal): 73 µM
- TGI (CCRF-CEM leukemia): 0.167 µM
- GI50 (COLO 205 colon): 14.5 µM
- TGI (COLO 205 colon): 31.4 µM
- GI50 (DU-145 prostate): 22.7 µM
- TGI (DU-145 prostate): > 100 µM
- GI50 (EKVX NSCLC): 13.3 µM
- TGI (EKVX NSCLC): 64.4 µM
- GI50 (HCC-2998 colon): 24.3 µM
- TGI (HCC-2998 colon): > 100 µM
- GI50 (HCT-116 colon): 16.9 µM
- TGI (HCT-116 colon): 54.1 µM
- GI50 (HCT-15 colon): 20 µM
- TGI (HCT-15 colon): > 100 µM
- GI50 (HL-60(TB) leukemia): 9.99 µM
- TGI (HL-60(TB) leukemia): > 100 µM
- GI50 (HOP-62 NSCLC): 19.6 µM
- TGI (HOP-62 NSCLC): 53.8 µM
- GI50 (HS 578T breast): 10.9 µM
- TGI (HS 578T breast): 63.8 µM
- GI50 (HT29 colon): 27.3 µM
- TGI (HT29 colon): > 100 µM
- GI50 (IGROV1 ovarian): 2.7 µM
- TGI (IGROV1 ovarian): 17.1 µM
- GI50 (K-562 leukemia): 27.5 µM
- TGI (K-562 leukemia): > 100 µM
- GI50 (KM12 colon): 13.3 µM
- TGI (KM12 colon): 31.2 µM
- GI50 (LOX IMVI melanoma): 15.2 µM
- TGI (LOX IMVI melanoma): 50.6 µM
- GI50 (M14 melanoma): 14.2 µM
- TGI (M14 melanoma): 34.8 µM
- GI50 (MALME-3M melanoma): 4.34 µM
- TGI (MALME-3M melanoma): 24.6 µM
- GI50 (MCF7 breast): 7.86 µM
- TGI (MCF7 breast): 27.1 µM
- GI50 (MDA-MB-231 breast): 6.5 µM
- TGI (MDA-MB-231 breast): 34.3 µM
- GI50 (MDA-MB-435): 11.5 µM
- TGI (MDA-MB-435): 23.8 µM
- GI50 (MDA-N): 13 µM
- TGI (MDA-N): 35.9 µM
- GI50 (NCI-H226 lung): 2.9 µM
- TGI (NCI-H226 lung): 32.9 µM
- GI50 (NCI-H23 lung): 27.5 µM
- TGI (NCI-H23 lung): > 100 µM
- GI50 (NCI-H460 lung): 7.91 µM
- TGI (NCI-H460 lung): 52.8 µM
- GI50 (NCI-H522 lung): 9.51 µM
- TGI (NCI-H522 lung): 28.8 µM
- GI50 (NCI/ADR-RES ovarian): 12.9 µM
- TGI (NCI/ADR-RES ovarian): 73.4 µM
- GI50 (OVCAR-3 ovarian): 3.9 µM
- TGI (OVCAR-3 ovarian): 20.1 µM
- GI50 (OVCAR-4 ovarian): 17.8 µM
- TGI (OVCAR-4 ovarian): > 100 µM
- GI50 (OVCAR-5 ovarian): 26.6 µM
- TGI (OVCAR-5 ovarian): > 100 µM
- GI50 (OVCAR-8 ovarian): 6.2 µM
- TGI (OVCAR-8 ovarian): 47 µM
- GI50 (PC-3 prostate): 1.96 µM
- TGI (PC-3 prostate): 10.9 µM
- GI50 (RPMI-8226 leukemia): 1.27 µM
- TGI (RPMI-8226 leukemia): 10.4 µM
- GI50 (RXF 393 renal): 3.15 µM
- TGI (RXF 393 renal): 18.8 µM
- GI50 (SF-268 CNS): 5.59 µM
- TGI (SF-268 CNS): 55.8 µM
- GI50 (SF-295 CNS): 12.5 µM
- TGI (SF-295 CNS): 59.2 µM
- GI50 (SK-MEL-2 melanoma): 12 µM
- TGI (SK-MEL-2 melanoma): 63.8 µM
- GI50 (SK-MEL-28 melanoma): 14.7 µM
- TGI (SK-MEL-28 melanoma): 89.3 µM
- GI50 (SK-MEL-5 melanoma): 10.5 µM
- TGI (SK-MEL-5 melanoma): 30 µM
- GI50 (SK-OV-3 ovarian): 6.55 µM
- TGI (SK-OV-3 ovarian): 40.2 µM
- GI50 (SN12C renal): 8.62 µM
- TGI (SN12C renal): > 100 µM
- GI50 (SNB-19 CNS): 58.3 µM
- TGI (SNB-19 CNS): > 100 µM
- GI50 (SNB-75 CNS): 3.7 µM
- TGI (SNB-75 CNS): 44.9 µM
- GI50 (SR leukemia): 5.67 µM
- TGI (SR leukemia): > 100 µM
- GI50 (SW-620 colon): 27.2 µM
- TGI (SW-620 colon): > 100 µM
- GI50 (T-47D breast): 4.44 µM
- TGI (T-47D breast): 23 µM
- GI50 (TK-10 renal): 13.1 µM
- TGI (TK-10 renal): 42.7 µM
- GI50 (U251 CNS): 22.9 µM
- TGI (U251 CNS): > 100 µM
- GI50 (UACC-257 melanoma): 15.9 µM
- TGI (UACC-257 melanoma): 48 µM
- GI50 (UACC-62 melanoma): 7.33 µM
- TGI (UACC-62 melanoma): 23.3 µM
- GI50 (UO-31 renal): 8.87 µM
- TGI (UO-31 renal): 45 µM
